According to the supplement of paper PMC10307832:

Assays:
Test in all cases: relative viability (nuclei count vs DMSO), 5 days (fraction); higher = more cells survive
Tosedostat + AZD7762 = compound: CC(C)C[C@@H](C(=O)N[C@H](C(=O)OC1CCCC1)c1ccccc1)[C@H](O)C(=O)NO [Tosedostat] + NC(=O)Nc1cc(-c2cccc(F)c2)sc1C(=O)N[C@H]1CCCNC1 [AZD7762] (partner 0.2 µM)
How it was run: (§1)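 For relative viability, nuclei counts in treated wells were divided by those in vehicle wells. Lung cancer cell lines had been pin-tool dosed in 1536-well plates the day after seeding and cultured for 5 days, then fixed and stained in one step (final 0.05% Triton X-100, 1% formaldehyde, 1 ug/ml Hoechst) and imaged at 4×. Doses were one drug alone or a fixed anchor-drug dose plus five library-drug doses (not always all listed) in √10 steps, and values are duplicate-plate medians.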

Tosedostat + Palbociclib = compound: CC(C)C[C@@H](C(=O)N[C@H](C(=O)OC1CCCC1)c1ccccc1)[C@H](O)C(=O)NO [Tosedostat] + CC(=O)c1c(C)c2cnc(Nc3ccc(N4CCNCC4)cn3)nc2n(C2CCCC2)c1=O [Palbociclib] (partner 0.5 µM)
How it was run: as §1

Tosedostat + Luminespib = compound: CC(C)C[C@@H](C(=O)N[C@H](C(=O)OC1CCCC1)c1ccccc1)[C@H](O)C(=O)NO [Tosedostat] + CCNC(=O)c1noc(-c2cc(C(C)C)c(O)cc2O)c1-c1ccc(CN2CCOCC2)cc1 [Luminespib] (partner 0.01 µM)
How it was run: as §1

[1] = compound: CC1=NN=C(O1)C2=NN=C(C=C2)N3CCC(CC3)OC4=C(C=CC(=C4)F)Cl + CC(=O)c1c(C)c2cnc(Nc3ccc(N4CCNCC4)cn3)nc2n(C2CCCC2)c1=O [Palbociclib] (partner 0.5 µM)
How it was run: as §1

Row | Cell Line | relative viability (Tosedostat + AZD7762; first compound 0.02 µM) | relative viability (Tosedostat + AZD7762; first compound 0.06325 µM) | relative viability (Tosedostat + AZD7762; first compound 0.2 µM) | relative viability (Tosedostat + AZD7762; first compound 0.6325 µM) | relative viability (Tosedostat + AZD7762; first compound 2 µM) | relative viability (Tosedostat + Palbociclib; first compound 0.02 µM) | relative viability (Tosedostat + Palbociclib; first compound 0.06325 µM) | relative viability (Tosedostat + Palbociclib; first compound 0.2 µM) | relative viability (Tosedostat + Palbociclib; first compound 0.6325 µM) | relative viability (Tosedostat + Palbociclib; first compound 2 µM) | relative viability (Tosedostat + Luminespib; first compound 0.02 µM) | relative viability (Tosedostat + Luminespib; first compound 0.06325 µM) | relative viability (Tosedostat + Luminespib; first compound 0.2 µM) | relative viability (Tosedostat + Luminespib; first compound 0.6325 µM) | relative viability (Tosedostat + Luminespib; first compound 2 µM) | relative viability ([1]; first compound 0.8 µM) | relative viability ([1]; first compound 2.53 µM) | relative viability ([1]; first compound 8 µM) | relative viability ([1]; first compound 0.253 µM)
1 | LOU-NH91 | 0.805 | 0.862 | 0.802 | 0.745 | 0.624 | 0.549 | 0.458 | 0.545 | 0.559 | 0.528 | 0.377 | 0.454 | 0.313 | 0.306 | 0.322 | 0.535 | 0.478 | 0.632 | –
2 | BEN | 0.813 | 0.724 | 0.901 | 1.12 | 1.04 | 0.454 | 0.463 | 0.537 | 0.497 | 0.465 | 0.467 | 0.387 | 0.264 | 0.435 | 0.248 | 0.448 | 0.487 | 0.52 | 0.452
3 | NCI-H1755 | 0.43 | 0.462 | 0.398 | 0.407 | 0.347 | 0.472 | 0.47 | 0.465 | 0.503 | 0.423 | 0.595 | 0.512 | 0.512 | 0.578 | 0.415 | 0.451 | 0.464 | 0.4 | 0.334
4 | LC-2-ad | 0.929 | 0.85 | 0.873 | 0.8 | 0.918 | 0.49 | 0.496 | 0.525 | 0.446 | 0.529 | 1.2 | 1.05 | 0.923 | 0.792 | 0.891 | 0.216 | 0.239 | 0.202 | 0.215
5 | NCI-H1975 | 0.768 | 0.776 | 0.7 | 0.654 | 0.608 | 0.574 | 0.53 | 0.561 | 0.432 | 0.415 | 0.208 | 0.195 | 0.382 | 0.325 | 0.19 | 0.363 | 0.517 | 0.411 | 0.2
6 | ChaGo-K-1 | 0.957 | 0.889 | 0.81 | 0.767 | 0.603 | 1.01 | 0.907 | 0.87 | 0.858 | 0.671 | 0.648 | 0.598 | 0.836 | 0.572 | 0.491 | 0.502 | 0.57 | 0.553 | 0.625
7 | NCI-H2085 | – | 1.03 | 1.05 | 0.973 | 0.965 | – | 0.498 | 0.474 | 0.512 | 0.561 | 0.377 | 0.969 | 0.491 | 0.407 | 0.4 | 0.431 | 0.469 | 0.37 | 0.425
8 | NCI-H2087 | 1.52 | 1.31 | 1.22 | 1.2 | 1.24 | 0.247 | 0.288 | 0.233 | 0.207 | 0.22 | 0.181 | 0.158 | 0.273 | 0.229 | 0.21 | 0.262 | 0.21 | 0.195 | 0.239
9 | NCI-H322M | 0.648 | 0.56 | 0.641 | 0.613 | 0.567 | 0.466 | 0.473 | 0.459 | 0.524 | 0.455 | 0.835 | 0.895 | 0.862 | 0.826 | 0.788 | 0.509 | 0.469 | 0.492 | 0.471
10 | EMC-BAC-2 | 1.09 | 1.02 | 1.1 | 1.07 | 0.859 | 0.516 | 0.522 | 0.536 | 0.484 | 0.489 | 1.26 | 1.06 | 1.17 | 1.15 | 0.986 | 0.513 | 0.502 | 0.513 | 0.492
11 | NCI-H460 | 0.728 | 0.66 | 0.709 | 0.665 | 0.705 | 0.192 | 0.203 | 0.11 | 0.146 | 0.128 | 0.0336 | 0.0335 | 0.03 | 0.0417 | 0.0255 | 0.0812 | 0.0833 | 0.0883 | 0.0613
12 | NCI-H358 | 0.71 | 0.471 | 0.434 | 0.317 | 0.34 | 0.141 | 0.134 | 0.131 | 0.137 | 0.136 | 0.229 | 0.304 | 0.234 | 0.293 | 0.187 | 0.12 | 0.119 | 0.133 | 0.137
13 | NCI-H1944 | 0.659 | 0.494 | 0.501 | 0.437 | 0.453 | 0.315 | 0.356 | 0.386 | 0.32 | 0.377 | 0.855 | 0.599 | 0.758 | 0.724 | 0.748 | 0.278 | 0.249 | 0.246 | 0.238
14 | NCI-H2342 | 0.512 | 0.599 | 0.446 | 0.41 | 0.432 | 0.536 | 0.507 | 0.578 | 0.524 | 0.61 | 0.686 | 0.732 | 0.806 | 0.859 | 0.883 | 0.491 | 0.458 | 0.417 | 0.478
15 | EPLC-272H | 0.248 | 0.232 | 0.267 | 0.153 | 0.192 | 0.337 | 0.311 | 0.348 | 0.303 | 0.248 | 0.246 | 0.265 | 0.278 | 0.285 | 0.225 | 0.314 | 0.277 | 0.34 | 0.281
16 | NCI-H838 | 0.999 | 0.928 | 0.893 | 0.973 | 1 | 0.243 | 0.219 | 0.216 | 0.261 | 0.256 | 0.323 | 0.284 | 0.308 | 0.389 | 0.355 | 0.24 | 0.222 | 0.196 | 0.192
17 | NCI-H647 | 0.664 | 0.454 | 0.368 | 0.366 | 0.398 | 0.401 | 0.344 | 0.388 | 0.427 | 0.502 | 0.11 | 0.212 | 0.171 | 0.334 | 0.167 | 0.201 | 0.155 | 0.0745 | 0.168
